Laboratory results from US20160089352A1, “CELL MEMBRANE TRANSPORT PROMOTER FOR SELECTIVE 5-HT1A SEROTONIN RECEPTORS” (NISHIZAKI BIOINFORMATION RESEARCH INSTITUTE, priority 2013, published 2016).

How the values were obtained:
[1] = system: 5-HT1A serotonin receptor; experiment: Analysis of 5-HT receptor trafficking in rat hippocampus and hypothalamus sections (Western blotting of cellular membrane and cytoplasm fractions); assay type: cell-based; settings: DCP-LA 100 nM
[2] = system: 5-HT1A serotonin receptor; experiment: 5-HT1A serotonin receptor on cellular membrane in hippocampus and hypothalamus of restraint-stressed mouse after forced swimming test (Western blotting); assay type: in vivo; settings: 1 mg/kg orally once per day, total 11 days, hippocampus, hypothalamus, FIG. 4
[3] = system: mouse under a restraint stress; experiment: Forced swimming test after restraint stress (depression model); assay type: in vivo; settings: restraint-stressed mouse, 0.5, 0.75, 1.0, 5.0 mg/kg orally once per day, total 11 days; FIG. 3
Source text: At present, in the study of depression using the behavior of an experiment animal, the efficacy of antidepressant and reaction to stress, which are the both sides of depression, are mainly utilized. In a depression model, a method for inducing depression in an animal by imposing a stress such as solitude, electric shock, forced immersion in water, peripheral environment, temperature change and the like is mainly used. In this Experimental Example, a restraint stress animal model was used. A symptom corresponding to depression was induced by loading a stress by enclosing an experiment animal in a narrow space inhibiting movement, and whether an antidepressive effect was observed when a test compound was administered was examined. Male C57BL/6J mouse at 8-week-old was purchased from Japan SLC Inc. (Shizuoka. Japan). The mouse was enclosed in a 11.5 cm plastic cylinder (diameter 2.7 cm) for 3 hr per day, which was performed for 4 consecutive days to impart a stress.
A forced swimming test is a behavioral test used for screening for an antidepressive effect of a compound. Also in this Experimental Example, a forced swimming test was performed according to a previous report after a restraint stress (Porsolt R D. Le Pichon M, Jalfre M. Depression: a new animal model sensitive, to antidepressant treatments. Nature 1977; 266:730-732.). […]

GSK-3β = experiment: Phosphorylation of GSK-3β at Ser9 in hypothalamus of mouse under or not under restraint stress (Western blotting); assay type: in vivo; settings: total 11 days, FIG. 6

In the case of `CCCCCC1CC1CC1CC1CCCCCCCC(=O)O` (stereo not drawn) [DCP-LA, 8-[2-(2-Pentyl-cyclopropylmethyl)-cyclopropyl]-octanoic acid], the “expression of 5-HT1A serotonin receptor on the cellular membrane (ratio of cellular membrane to whole cells)” value ([1]; 20 min, rat hippocampus and hypothalamus sections, compared with 5-HT2A serotonin receptor, FIG. 1) is reported as “selectively increased”, the “promoting action on cellular membrane trafficking of 5-HT1A serotonin receptor in the presence of inhibitors” value ([1]; rat hypothalamus section, GF109203X 100 nM, BoTX-A 0.1 U/ml, KN-93 3 μM, FIG. 2) is reported as “significantly suppressed by BoTX and KN” and the “stress-induced decrease in 5-HT1A serotonin receptor on the cellular membrane” value [2] is reported as “recovered”. For the same compound, the “immobility time in forced swimming test” value [3] was “immobility time decreasing effect in a dose-dependent manner”, the “phosphorylation of GSK-3β (Ser9)” value (GSK-3β; irrespective of the presence or absence of a restraint stress, mouse hypothalamus, 1 mg/kg orally) was “promote phosphorylation” and the “stress-induced suppression of phosphorylation of GSK-3β (Ser9)” value (GSK-3β; mouse under restraint stress, hypothalamus, 1 mg/kg orally once per day) was “improves suppression of the phosphorylation”.
